Test system: myoblasts
Assay: Culture of hES-derived clonal myoblasts with or without the TGFβ inhibitor
Assay type: cell-based, human
Settings: removal of SB431542 together with switch from Matrigel to gelatin substrate (FIG. 11)
Excerpt: FIG. 11 is a photomicrograph showing myoblasts grown on Matrigel® in the presence of a TGFβ inhibitor (SB431542)(top) and myoblasts switched to gelatin without the TGFβ inhibitor.

Question: With `NC(=O)c1ccc(-c2nc(-c3ccc4c(c3)OCO4)c(-c3ccccn3)[nH]2)cc1` [SB431542] as the molecule, how does the proliferation of myoblasts read?
Answer: increased proliferation
